PubChem BioAssay (NCI)
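Growth conditions: 96-well plates. Treatment: test compound, 48 hours, 5 concentrations. Analysis: linear interpolation between bracketing concentrations; unreached endpoints set to highest concentration. At the TGI there is no net growth.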

Legend:
Assay in all cases: NCI-60 cell line screen, 48 h
OVCAR-5 ovarian = test system: OVCAR-5 ovarian
CAKI-1 renal = test system: CAKI-1 renal
CCRF-CEM leukemia = test system: CCRF-CEM leukemia
MCF7 breast = test system: MCF7 breast
UACC-62 melanoma = test system: UACC-62 melanoma
M14 melanoma = test system: M14 melanoma
EKVX NSCLC = test system: EKVX NSCLC
NCI-H460 lung = test system: NCI-H460 lung
NCI-H522 lung = test system: NCI-H522 lung
NCI/ADR-RES ovarian = test system: NCI/ADR-RES ovarian

O=C1c2ccccc2C2(c3ccc(Cl)cc3)N[C@@H]3CCCC[C@@H]3N12 (stereo partly specified)
TGI (OVCAR-5 ovarian): > 100 µM
TGI (CAKI-1 renal): > 100 µM
TGI (CCRF-CEM leukemia): > 100 µM
TGI (MCF7 breast): > 100 µM
TGI (UACC-62 melanoma): > 100 µM
TGI (M14 melanoma): > 100 µM
TGI (EKVX NSCLC): > 100 µM
TGI (NCI-H460 lung): > 100 µM

CC(=O)CCCCCCCCCCCC[C@@H]1CC[C@H](C)[C@H](O)N1
TGI (OVCAR-5 ovarian): > 100 µM
TGI (CAKI-1 renal): > 100 µM
TGI (CCRF-CEM leukemia): > 100 µM
TGI (NCI-H522 lung): > 100 µM
TGI (UACC-62 melanoma): > 100 µM
TGI (M14 melanoma): > 100 µM
TGI (EKVX NSCLC): > 100 µM
TGI (NCI-H460 lung): > 100 µM

CC(C)NCCNC(=O)c1ccccc1Nc1c(Cl)cccc1Cl
TGI (OVCAR-5 ovarian): 20.4 µM
TGI (CCRF-CEM leukemia): 27.1 µM
TGI (UACC-62 melanoma): 30.1 µM
TGI (M14 melanoma): 25.1 µM
TGI (EKVX NSCLC): 28.1 µM
TGI (NCI-H460 lung): 11 µM

O=C(NCCNCCO)N/N=C/c1ccccc1
TGI (CCRF-CEM leukemia): > 100 µM
TGI (NCI-H522 lung): > 100 µM
TGI (UACC-62 melanoma): > 100 µM
TGI (M14 melanoma): > 100 µM
TGI (NCI-H460 lung): > 100 µM

COC(C/C=C\C=C\CC/C=C/CC(C)/C=C/C(=C\C(=O)O)CC(=O)O)/C(C)=C\C=C(/C)C(=O)O (stereo unspecified)
TGI (OVCAR-5 ovarian): > 100 µM
TGI (CAKI-1 renal): > 100 µM
TGI (CCRF-CEM leukemia): > 100 µM
TGI (NCI-H522 lung): > 100 µM
TGI (UACC-62 melanoma): > 100 µM
TGI (M14 melanoma): > 100 µM
TGI (EKVX NSCLC): > 100 µM
TGI (NCI-H460 lung): > 100 µM

O=c1n(C2CCCCC2)c(=C(Cl)Cl)c(=C(Cl)Cl)n1C1CCCCC1
TGI (OVCAR-5 ovarian): > 100 µM
TGI (CCRF-CEM leukemia): > 100 µM
TGI (NCI-H522 lung): > 100 µM
TGI (UACC-62 melanoma): > 100 µM
TGI (EKVX NSCLC): > 100 µM
TGI (NCI-H460 lung): > 100 µM

CCCCCCCCCCC[N+]1(Cc2ccccc2)CC2CCN(Cc3ccccc3)CC2C1 (stereo unspecified)
TGI (OVCAR-5 ovarian): 2.9 µM
TGI (CAKI-1 renal): 2.74 µM
TGI (CCRF-CEM leukemia): 1.14 µM
TGI (NCI-H522 lung): 1.29 µM
TGI (MCF7 breast): 1.62 µM
TGI (M14 melanoma): 1.48 µM
TGI (EKVX NSCLC): 1.37 µM
TGI (NCI-H460 lung): 2.58 µM

CCCOC1OC(CS(=O)(=O)O)C(OC(C)=O)C(OC(C)=O)C1OC(C)=O (stereo unspecified)
TGI (OVCAR-5 ovarian): > 100 µM
TGI (CAKI-1 renal): > 100 µM
TGI (NCI/ADR-RES ovarian): > 100 µM
TGI (CCRF-CEM leukemia): > 100 µM
TGI (MCF7 breast): > 100 µM
TGI (UACC-62 melanoma): > 100 µM
TGI (M14 melanoma): > 100 µM
TGI (NCI-H460 lung): > 100 µM

O=C1/C(=C/C=C/c2ccccc2)CCC1CNc1ccc(Br)cc1 (stereo unspecified)
TGI (OVCAR-5 ovarian): > 100 µM
TGI (CAKI-1 renal): > 100 µM
TGI (CCRF-CEM leukemia): > 100 µM
TGI (NCI-H522 lung): 57 µM
TGI (MCF7 breast): > 100 µM
TGI (UACC-62 melanoma): > 100 µM
TGI (M14 melanoma): > 100 µM
TGI (EKVX NSCLC): > 100 µM
TGI (NCI-H460 lung): > 100 µM

O=C1C(Cl)C(c2cccc(O)c2)N1n1cnc2ccccc2c1=O (stereo unspecified)
TGI (OVCAR-5 ovarian): > 100 µM
TGI (CAKI-1 renal): > 100 µM
TGI (NCI-H522 lung): > 100 µM
TGI (UACC-62 melanoma): > 100 µM
TGI (M14 melanoma): > 100 µM
TGI (EKVX NSCLC): > 100 µM
TGI (NCI-H460 lung): > 100 µM

NNc1nnc(-c2ccccc2)nc1Cc1ccccc1
TGI (OVCAR-5 ovarian): > 100 µM
TGI (CAKI-1 renal): > 100 µM
TGI (CCRF-CEM leukemia): > 100 µM
TGI (NCI-H522 lung): > 100 µM
TGI (UACC-62 melanoma): 16.1 µM
TGI (M14 melanoma): 45.5 µM
TGI (EKVX NSCLC): > 100 µM
TGI (NCI-H460 lung): > 100 µM
